Structures are written as SMILES.

The target of the test is T1, cMET receptor tyrosine kinase (GST-cMET (969-1390)) (Homo sapiens, UniProt P08581).
T1 construct: made in house
T1 sequence (P08581 969-1390): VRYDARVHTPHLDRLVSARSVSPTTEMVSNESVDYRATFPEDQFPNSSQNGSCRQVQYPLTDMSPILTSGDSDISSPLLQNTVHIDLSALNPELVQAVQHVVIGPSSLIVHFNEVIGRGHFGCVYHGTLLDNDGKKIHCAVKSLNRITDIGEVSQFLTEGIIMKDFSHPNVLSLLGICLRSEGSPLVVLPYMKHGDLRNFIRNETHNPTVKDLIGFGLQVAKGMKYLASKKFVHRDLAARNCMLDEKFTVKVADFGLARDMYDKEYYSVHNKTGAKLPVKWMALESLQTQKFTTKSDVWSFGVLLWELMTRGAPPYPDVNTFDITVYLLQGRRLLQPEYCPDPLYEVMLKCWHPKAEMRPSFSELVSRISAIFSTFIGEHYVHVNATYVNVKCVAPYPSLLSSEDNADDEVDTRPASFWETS
Put plainly: EPK cMET profiling assay (LanthaScreen TR-FRET antibody based kinase phosphorylation assay). Type of test: biochemical. The following applies: purified recombinant GST-cMET (969-1390), 2 μM ATP, 50 nM Fluorescein-PolyEAY, 60 minutes at room temperature; read-out: c-Met IC50. Put shortly: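 GST-cMET cytoplasmic domain (969-1390), 0.3 nM, phosphorylated 50 nM fluorescein-PolyEAY with 2 µM ATP, Mg2+/Mn2+, 0.6% DMSO, 60 min at room temperature. Stopped with EDTA; Tb-PY20 antibody TR-FRET single end-point read. Final compound concentrations 10 to 0.003 µM, 8 points.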
Regarding `CCn1cc(-c2ccc3ncc(Cc4cc5cccnc5cc4F)n3n2)cn1` [Example 250, 6-[6-(1-Ethyl-1H-pyrazol-4-yl)-imidazo[1,2-b]pyridazin-3-ylmethyl]-7-fluoro-quinoline], the IC50 worked out at 15 nM.
As for `Fc1cc2ncccc2cc1Cc1cnc2ccc(-c3cn[nH]c3)nn12` [Example 251, 7-Fluoro-6-[6-(1H-pyrazol-4-yl)-imidazo[1,2-b]pyridazin-3-ylmethyl]-quinoline], the figure is 21 nM; as for `OCCn1cc(-c2ccc3ncc(Cc4cc5cccnc5cc4F)n3n2)cn1` [Example 254, 2-{4-[3-(7-Fluoro-quinolin-6-ylmethyl)-imidazo[1,2-b]pyridazin-6-yl]-pyrazol-1-yl}-ethanol], 33 nM.
As for `C[C@@H](c1cc2cccnc2cc1F)c1cnc2ccc(-c3cnn(CCO)c3)nn12` [Example 257], the figure is under 3 nM.
As for `O[C@H]1CCN(c2ccc3ncc(Cc4cc5cccnc5cc4F)n3n2)C1` [Example 261, (S)-1-[3-(7-Fluoro-quinolin-6-ylmethyl)-imidazo[1,2-b]pyridazin-6-yl]-pyrrolidin-3-ol], the figure is 120 nM.
Turning to `O[C@@H]1CCN(c2ccc3ncc(Cc4cc5cccnc5cc4F)n3n2)C1` [Example 262, (R)-1-[3-(7-Fluoro-quinolin-6-ylmethyl)-imidazo[1,2-b]pyridazin-6-yl]-pyrrolidin-3-ol], the IC50 was found to be 42 nM.
For the compound `Fc1cc2ncccc2c(F)c1Cc1cnc2ccc(-c3cn[nH]c3)nn12` [Example 263, 5,7-Difluoro-6-[6-(1H-pyrazol-4-yl)-imidazo[1,2-b]pyridazin-3-ylmethyl]-quinoline], the IC50 is 10 nM.
As for `C[C@@H](c1ccc2ncccc2c1)c1cnc2ccc(Cl)nn12` [Example 273, 6-[(S)-1-(6-Chloro-imidazo[1,2-b]pyridazin-3-yl)-ethyl]-quinoline], the figure is 21 nM; as for `C[C@@H](c1ccc2c(cnn2CCO)c1)c1cnc2ccc(-c3cnn(C)c3)nn12` [Example 275, 2-(5-{(S)-1-[6-(1-Methyl-1H-pyrazol-4-yl)-imidazo[1,2-b]pyridazin-3-yl]-ethyl}-indazol-1-yl)ethanol], 150 nM; as for `Cn1cc(-c2ccc3ncc(Cc4ccc5c(cnn5C)c4)n3n2)cn1` [Example 276, 3-(1-Methyl-1H-indazol-5-ylmethyl)-6-(1-methyl-1H-pyrazol-4-yl)-imidazo[1,2-b]pyridazine], 82 nM.
As for `Cn1cc(-c2ccc3ncc(Cc4cc5cnn(C)c5cc4F)n3n2)cn1` [Example 277, 3-(6-Fluoro-1-methyl-1H-indazol-5-ylmethyl)-6-(1-methyl-1H-pyrazol-4-yl)-imidazo[1,2-b]pyridazine], the figure is 61 nM; as for `Cn1ncc2cc(Cc3cnc4ccc(-c5cnn(CCO)c5)nn34)c(F)cc21` [Example 281, 2-{4-[3-(6-Fluoro-1-methyl-1H-indazol-5-ylmethyl)-imidazo[1,2-b]pyridazin-6-yl]-pyrazol-1-yl}-ethanol], 77 nM.
As for `Cn1ncc2cc(Cc3cnc4ccc(-c5cnn(C6CCNCC6)c5)nn34)c(F)cc21` [Example 282, 3-(6-Fluoro-1-methyl-1H-indazol-5-ylmethyl)-6-(1-piperidin-4-yl-1H-pyrazol-4-yl)-imidazo[1,2-b]pyridazine], the figure is 87 nM; as for `Cn1cc(-c2ccc3ncc(Cc4c(F)cc5c(cnn5C)c4F)n3n2)cn1` [Example 284, 3-(4,6-Difluoro-1-methyl-1H-indazol-5-ylmethyl)-6-(1-methyl-1H-pyrazol-4-yl)-imidazo[1,2-b]pyridazine], 150 nM.
Turning to `Cn1ncc2c(F)c(Cc3cnc4ccc(-c5cnn(CCO)c5)nn34)c(F)cc21` [Example 285, 2-{4-[3-(4,6-Difluoro-1-methyl-1H-indazol-5-ylmethyl)-imidazo[1,2-b]pyridazin-6-yl]-pyrazol-1-yl}-ethanol], the IC50 came to 11 nM.
As for `Cn1cc(-c2ccc3ncc(Cc4ccc5nc(F)cn5c4)n3n2)cn1` [Example 288, 3-(2-Fluoro-imidazo[1,2-a]pyridin-6-ylmethyl)-6-(1-methyl-1H-pyrazol-4-yl)-imidazo[1,2-b]pyridazine], the figure is 850 nM; as for `CCn1cc(-c2ccc3ncc(Cc4ccc5nccn5c4)n3n2)cn1` [Example 289, 6-(1-Ethyl-1H-pyrazol-4-yl)-3-imidazo[1,2-a]pyridin-6-ylmethyl-imidazo[1,2-b]pyridazine], 140 nM; as for `c1cn2cc(Cc3cnc4ccc(-c5cn[nH]c5)nn34)ccc2n1` [Example 290, 3-Imidazo[1,2-a]pyridin-6-ylmethyl-6-(1H-pyrazol-4-yl)-imidazo[1,2-b]pyridazine], 120 nM.
As for `c1cn2cc(Cc3cnc4ccc(-c5cnn(C6CCNCC6)c5)nn34)ccc2n1` [Example 291, 3-Imidazo[1,2-a]pyridin-6-ylmethyl-6-(1-piperidin-4-yl-1H-pyrazol-4-yl)-imidazo[1,2-b]pyridazine], the figure is 590 nM; as for `C[C@H](c1ccc2nccn2c1)c1cnc2ccc(-c3cnn(C)c3)nn12` [Example 294, 3-((R)-1-Imidazo[1,2-a]pyridin-6-yl-ethyl)-6-(1-methyl-1H-pyrazol-4-yl)-imidazo[1,2-b]pyridazine], 820 nM; as for `C[C@@H](c1ccc2nccn2c1)c1cnc2ccc(-c3cnn(C)c3)nn12` [Example 295, 3-((S)-1-Imidazo[1,2-a]pyridin-6-yl-ethyl)-6-(1-methyl-1H-pyrazol-4-yl)-imidazo[1,2-b]pyridazine], 19 nM.
Turning to `Cn1cc(-c2ccc3ncc(Cc4ccc5ncc(Br)n5c4)n3n2)cn1` [Example 296, 3-(3-Bromo-imidazo[1,2-a]pyridin-6-ylmethyl)-6-(1-methyl-1H-pyrazol-4-yl)-imidazo[1,2-b]pyridazine], the IC50 was determined as 57 nM.
As for `Cn1cc(-c2ccc3ncc(Cc4ccc5ncc(C=O)n5c4)n3n2)cn1` [Example 297, 6-[6-(1-Methyl-1H-pyrazol-4-yl)-imidazo[1,2-b]pyridazin-3-ylmethyl]-imidazo[1,2-a]pyridine-3-carbaldehyde], the figure is 130 nM.
As for `Cn1cc(-c2ccc3ncc(Cc4ccc5ncc(Cl)n5c4)n3n2)cn1` [Example 298, 3-(3-Chloro-imidazo[1,2-a]pyridin-6-ylmethyl)-6-(1-methyl-1H-pyrazol-4-yl)-imidazo[1,2-b]pyridazine], the figure is 130 nM.
Take `C=Cc1cnc2ccc(Cc3cnc4ccc(-c5cnn(C)c5)nn34)cn12` [Example 299, 6-(1-Methyl-1H-pyrazol-4-yl)-3-(3-vinyl-imidazo[1,2-a]pyridin-6-ylmethyl)-imidazo[1,2-b]pyridazine]: the IC50 worked out at 270 nM.
As for `Cn1cc(-c2ccc3ncc(Cc4ccc5ncc(CO)n5c4)n3n2)cn1` [Example 300, {6-[6-(1-Methyl-1H-pyrazol-4-yl)-imidazo[1,2-b]pyridazin-3-ylmethyl]-imidazo[1,2-a]pyridin-3-yl}-methanol], the figure is 300 nM; as for `CC(=O)c1cnc2ccc(Cc3cnc4ccc(-c5cnn(C)c5)nn34)cn12` [Example 301, 1-{6-[6-(1-Methyl-1H-pyrazol-4-yl)-imidazo[1,2-b]pyridazin-3-ylmethyl]-imidazo[1,2-a]pyridin-3-yl}-ethanone], 71 nM.

One may read the IC50 as the concentration that gives 50% inhibition.

Source of the values: patent publication US8822468B2 (Novartis AG, priority 2008, dated 2014).
